ChEMBL document CHEMBL4364346, “Structure optimization of a new class of PPARγ antagonists” (Bioorg Med Chem, 2019)
Active and inactive are the calls of the source. The rule behind the calls is not given here.

Legend:
[1] = Metabolic stability in Sprague-Dawley rat liver microsomes assessed as remaining compound at […] incubated for 60 mins; type: ADME, Microsome; conditions: read-out: Stability
[2] = Metabolic stability in Sprague-Dawley rat liver microsomes assessed as half life at […] incubated for 60 mins; type: ADME, Microsome
[3] = Cmax in Swiss CD1 mouse at 1 mg/kg, ip measured upto 7 hrs by LC-MS analysis; type: ADME, organism-based; design: dose 1 mg/kg, route intraperitoneal; conditions: in vivo
[4] = AUC (0 to 3 hrs) in Swiss CD1 mouse at 1 mg/kg, ip measured upto 3 hrs by LC-MS analysis; type: ADME, organism-based; design: dose 1 mg/kg, time < 3 hr, route intraperitoneal; conditions: in vivo
[5] = Tmax in Swiss CD1 mouse at 10 mg/kg, ip measured upto 7 hrs by LC-MS analysis; type: ADME, organism-based; conditions: in vivo
[6] = target: T1, Retinoic acid receptor RXR-alpha (Homo sapiens) (UniProt P19793); test: Agonist activity at recombinant human pFA-CMV fused RXRalpha LBD transfected in HEK293T cells assessed as RXRalpha activation at 1 uM incubated for 12 to 14 hrs by dual glo luciferase reporter gene assay; type: cell-based
T1 sequence (whole entry): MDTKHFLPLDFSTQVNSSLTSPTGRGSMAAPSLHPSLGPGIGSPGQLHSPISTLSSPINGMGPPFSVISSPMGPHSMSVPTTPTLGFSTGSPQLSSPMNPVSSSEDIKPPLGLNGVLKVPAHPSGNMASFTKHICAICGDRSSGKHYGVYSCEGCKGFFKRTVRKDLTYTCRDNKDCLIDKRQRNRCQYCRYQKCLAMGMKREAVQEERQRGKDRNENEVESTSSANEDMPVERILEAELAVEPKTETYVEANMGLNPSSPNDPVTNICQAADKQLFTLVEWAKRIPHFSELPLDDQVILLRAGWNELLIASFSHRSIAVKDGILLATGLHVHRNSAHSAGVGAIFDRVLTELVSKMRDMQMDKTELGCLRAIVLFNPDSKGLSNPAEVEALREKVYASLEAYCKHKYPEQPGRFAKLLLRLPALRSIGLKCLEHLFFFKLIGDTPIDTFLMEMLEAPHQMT

[7] = target: T2, Nuclear receptor subfamily 1 group I member 3 (Homo sapiens, UniProt Q14994); test: Agonist activity at recombinant human pFA-CMV fused CAR LBD transfected in HEK293T cells assessed as CAR activation at 1 uM incubated for 12 to 14 hrs by dual glo luciferase reporter gene assay; type: cell-based
T2 sequence (Q14994 whole entry): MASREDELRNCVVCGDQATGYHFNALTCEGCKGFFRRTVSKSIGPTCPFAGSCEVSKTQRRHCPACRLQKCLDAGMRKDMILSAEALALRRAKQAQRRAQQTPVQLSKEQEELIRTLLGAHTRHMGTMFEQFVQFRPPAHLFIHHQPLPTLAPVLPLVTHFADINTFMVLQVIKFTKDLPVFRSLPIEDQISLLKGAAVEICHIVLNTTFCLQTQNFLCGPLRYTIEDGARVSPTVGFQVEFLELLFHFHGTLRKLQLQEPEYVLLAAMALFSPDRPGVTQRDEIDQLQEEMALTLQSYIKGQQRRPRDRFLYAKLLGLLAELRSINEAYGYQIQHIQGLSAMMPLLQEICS

[8] = target: T3, Peroxisome proliferator-activated receptor alpha (Homo sapiens) (UniProt Q07869); test: Antagonist activity at recombinant human pFA-CMV fused PPARalpha LBD transfected in HEK293T cells assessed as reduction in GW7647-induced PPARalpha activation at 1 uM incubated for 12 to 14 hrs by dual glo luciferase reporter gene assay; type: cell-based
T3 sequence (whole entry): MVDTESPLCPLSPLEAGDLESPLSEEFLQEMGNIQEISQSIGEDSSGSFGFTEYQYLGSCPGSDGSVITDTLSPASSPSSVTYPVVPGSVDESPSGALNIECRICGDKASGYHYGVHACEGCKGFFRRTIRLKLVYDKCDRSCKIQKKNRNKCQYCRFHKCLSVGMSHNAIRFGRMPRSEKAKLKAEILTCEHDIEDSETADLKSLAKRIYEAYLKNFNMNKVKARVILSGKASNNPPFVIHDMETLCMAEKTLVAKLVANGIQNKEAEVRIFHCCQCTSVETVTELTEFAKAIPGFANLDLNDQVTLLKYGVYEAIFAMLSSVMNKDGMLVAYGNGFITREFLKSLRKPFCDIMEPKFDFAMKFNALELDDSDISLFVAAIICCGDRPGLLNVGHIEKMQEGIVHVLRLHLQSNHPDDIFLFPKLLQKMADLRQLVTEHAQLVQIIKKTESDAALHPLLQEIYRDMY

[9] = target: T4, Peroxisome proliferator-activated receptor delta (Homo sapiens) (UniProt Q03181); test: Antagonist activity at recombinant human pFA-CMV fused PPARdelta LBD transfected in HEK293T cells assessed as reduction in L165041-induced PPARdelta activation at 1 uM incubated for 12 to 14 hrs by dual glo luciferase reporter gene assay; type: cell-based
T4 sequence (whole entry): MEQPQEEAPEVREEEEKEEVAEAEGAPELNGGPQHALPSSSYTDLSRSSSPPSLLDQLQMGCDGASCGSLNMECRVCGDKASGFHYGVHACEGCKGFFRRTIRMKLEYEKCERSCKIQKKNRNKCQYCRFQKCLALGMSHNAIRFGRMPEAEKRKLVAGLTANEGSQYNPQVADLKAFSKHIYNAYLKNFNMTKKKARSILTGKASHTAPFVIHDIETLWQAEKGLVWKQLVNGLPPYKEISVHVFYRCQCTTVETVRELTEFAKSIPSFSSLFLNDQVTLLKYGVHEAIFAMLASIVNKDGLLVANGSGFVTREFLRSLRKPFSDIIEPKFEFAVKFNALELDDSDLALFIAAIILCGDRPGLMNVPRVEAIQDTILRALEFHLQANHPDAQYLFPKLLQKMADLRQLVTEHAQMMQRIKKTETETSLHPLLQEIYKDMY

[10] = target: T1, Retinoic acid receptor RXR-alpha (Homo sapiens); test: Antagonist activity at recombinant human pFA-CMV fused RXRalpha LBD transfected in HEK293T cells assessed as reduction in bexarotene-induced RXRalpha activation at 1 uM incubated for 12 to 14 hrs by dual glo luciferase reporter gene assay; type: cell-based
[11] = target: T5, Retinoic acid receptor alpha (Homo sapiens) (UniProt P10276); test: Antagonist activity at recombinant human pFA-CMV fused RARalpha LBD transfected in HEK293T cells assessed as reduction in tretinoin-induced RARalpha activation at 1 uM incubated for 12 to 14 hrs by dual glo luciferase reporter gene assay; type: cell-based
T5 sequence (whole entry): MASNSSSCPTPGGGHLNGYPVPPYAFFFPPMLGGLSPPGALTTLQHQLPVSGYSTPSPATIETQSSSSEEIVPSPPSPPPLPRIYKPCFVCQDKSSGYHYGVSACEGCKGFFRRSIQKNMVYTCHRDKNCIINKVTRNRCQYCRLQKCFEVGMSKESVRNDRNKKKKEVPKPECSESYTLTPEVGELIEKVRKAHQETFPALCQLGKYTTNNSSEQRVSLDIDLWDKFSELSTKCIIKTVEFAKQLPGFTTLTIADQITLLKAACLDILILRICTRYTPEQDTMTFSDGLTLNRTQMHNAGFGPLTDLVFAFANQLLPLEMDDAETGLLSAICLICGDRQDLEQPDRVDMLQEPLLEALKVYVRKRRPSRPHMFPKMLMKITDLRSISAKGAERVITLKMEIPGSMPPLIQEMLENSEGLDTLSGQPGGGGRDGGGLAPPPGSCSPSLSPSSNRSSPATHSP

| remaining at 1 h [1] [%] | half-life [2] [min] | Cmax [3] [nM] | AUC(0-t) at 3 h [4] [ng·h/mL] | Tmax [5] [h] | Activity [6] | Activity [7] | Activity [8] | Activity [9] | Activity [10] | Activity [11] | Compound |
| --- | --- | --- | --- | --- | --- | --- | --- | --- | --- | --- | --- |
| 81 | > 60 | 74 | 112 | 0.25 | inactive | Not Active | inactive | inactive | inactive | inactive | CCC/C(=C\c1cc(OCc2ccc3nc(C(F)(F)F)cc(OC)c3c2)ccc1OCCN1CCN(C)CC1)C(=O)O |
| 95 | > 60 | 60 | 101 | 2 | inactive | Active | inactive | inactive | inactive | inactive | CCC/C(=C\c1cc(OCc2ccc3nc(C(F)(F)F)cc(OC)c3c2)ccc1OCC1CCN(C)CC1)C(=O)O |
